According to the supplement of paper PMC11061612:

How the values were obtained:
[1] = tested on: KNS-62 (Squamous Cell Lung Carcinoma); test: combination Emax (second highest fraction inhibited in the dose matrix, 72 h); higher = more inhibition; extreme values may be limits of the assay
Method in brief: (§1)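 Cell lines grown in DMEM/F12 or RPMI with 10% FBS were plated in 1536-well plates and held 24 hours at 37°C, 5% CO2 before 72 hours of exposure to two-drug dose matrices, with DMSO typically at 0.2%. CellTiter-Glo 2.0 luminescence gave viability, which was converted to inhibition. Vehicle wells were set to 0 and blank wells to 1. Combination Emax is the second-highest inhibition in the matrix, and Bliss excess is the observed combination effect minus the expected EA + EB − EA·EB, where EA and EB are the single-agent effects.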

RVH-421 (Melanoma) [2] = test: as above
Method in brief: as §1

[3] = tested on: RS4-11 (B-Lymphoblastic Leukemia); test: as above
Method in brief: as §1

[4] = tested on: Daudi (Burkitt's Lymphoma); test: as above
Method in brief: as §1

[5] = tested on: IGROV-1 (Ovarian Carcinoma); test: as above
Method in brief: as §1

C32 (Melanoma) = test: as above
Method in brief: as §1

[6] = tested on: NCI-H2170 (Squamous Cell Lung Carcinoma); test: as above
Method in brief: as §1

[7] = tested on: OCI-M1 (Acute Myeloid Leukemia); test: as above
Method in brief: as §1

[8] = tested on: SBC-5 (Small Cell Lung Carcinoma); test: as above
Method in brief: as §1

[9] = tested on: NTERA-2-cl-D1 (Other Solid Carcinomas); test: as above
Method in brief: as §1

NCI-H2452 (Mesothelioma) = test: as above
Method in brief: as §1

[10] = tested on: L-363 (Plasma Cell Myeloma); test: as above
Method in brief: as §1

[11] = tested on: ATN-1 (T-Lymphoblastic Leukemia); test: as above
Method in brief: as §1

[12] = tested on: NCI-H2009 (Lung Adenocarcinoma); test: as above
Method in brief: as §1

[13] = tested on: MDA-MB-175-VII (Breast Carcinoma); test: as above
Method in brief: as §1

RVH-421 (Melanoma) [14] = test: Bliss excess, mean over the matrix (fraction); higher = more synergy
Method in brief: as §1

[15] = tested on: NCI-H835 (Other Solid Carcinomas); test: combination Emax (second highest fraction inhibited in the dose matrix, 72 h); higher = more inhibition; extreme values may be limits of the assay
Method in brief: as §1

[16] = tested on: NCI-H835 (Other Solid Carcinomas); test: Bliss excess, mean over the matrix (fraction); higher = more synergy
Method in brief: as §1
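Throughout, for Bliss excess, mean over the matrix: after 72 h of two-drug dosing.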

| SMILES | combination Emax [1] | combination Emax (RVH-421 (Melanoma) [2]) | combination Emax [3] | combination Emax [4] | combination Emax [5] | combination Emax (C32 (Melanoma)) | combination Emax [6] | combination Emax [7] | combination Emax [8] | combination Emax [9] | combination Emax (NCI-H2452 (Mesothelioma)) | combination Emax [10] | combination Emax [11] | combination Emax [12] | combination Emax [13] | Bliss excess (RVH-421 (Melanoma) [14]) | combination Emax [15] | Bliss excess [16] |
| --- | --- | --- | --- | --- | --- | --- | --- | --- | --- | --- | --- | --- | --- | --- | --- | --- | --- | --- |
| CCN(CCO)CCCOc1ccc2c(Nc3cc(CC(=O)Nc4cccc(F)c4)[nH]n3)ncnc2c1 [AZD2811] + O=C(c1cc(Cc2n[nH]c(=O)c3ccccc23)ccc1F)N1CCN(C(=O)C2CC2)CC1 [Olaparib] (first compound max 1 µM, 7x7, partner max 10 µM) | 0.145 | 0.176 | 0.987 | 0.48 | 0.303 | 0.232 | 0.623 | 0.268 | 0.392 | 0.65 | 0.423 | 0.184 | 0.835 | 0.343 | 0.23 | -0.0685 | – | – |
| CN(CCO)CC[C@H](CSc1ccccc1)Nc1ccc(S(=O)(=O)NC(=O)c2ccc(N3CCC([C@@H](O)c4ccccc4-c4ccc(Cl)cc4)CC3)cc2)cc1S(=O)(=O)C(F)(F)F [AZD4320] + C[C@@H]1COCCN1C2=NC(=NC(=C2)C3(CC3)[S@](=N)(=O)C)C4=C5C=CNC5=NC=C4 [AZD6738] (first compound max 1 µM, 7x7, partner max 10 µM) | 0.581 | 0.387 | 1 | 0.65 | 0.876 | 0.787 | 0.829 | 1 | 0.771 | – | 0.704 | 0.853 | 0.978 | 0.543 | 0.474 | -0.0511 | – | – |
| Cc1c2c(nn1C)CSCc1cc(n(C)n1)CSc1cc(c3ccccc3c1)OCCCc1c(C(=O)O)n(C)c3c-2c(Cl)ccc13 [AZD5991] + CC1(C)CCC(CN2CCN(c3ccc(C(=O)NS(=O)(=O)c4ccc(NCC5CCOCC5)c([N+](=O)[O-])c4)c(Oc4cnc5[nH]ccc5c4)c3)CC2)=C(c2ccc(Cl)cc2)C1 [Venetoclax] (first compound max 1 µM, 7x7, partner max 1 µM) | – | 0.358 | 1 | 0.258 | 0.469 | 0.626 | 0.237 | 0.175 | 0.231 | 0.916 | 0.305 | 1 | 0.968 | 0.151 | 0.152 | -0.0237 | – | – |
| Cc1c2c(nn1C)CSCc1cc(n(C)n1)CSc1cc(c3ccccc3c1)OCCCc1c(C(=O)O)n(C)c3c-2c(Cl)ccc13 [AZD5991] + Cn1cnc2c(F)c(Nc3ccc(Br)cc3Cl)c(C(=O)NOCCO)cc21 [Selumetinib] (first compound max 1 µM, 7x7, partner max 3 µM) | 0.339 | 0.449 | 0.497 | 0.394 | 0.734 | 1 | 0.184 | 0.618 | 0.415 | 0.562 | 0.32 | 1 | 0.888 | 0.526 | – | -0.0194 | – | – |
| Cn1cnc2c(F)c(Nc3ccc(Br)cc3Cl)c(C(=O)NOCCO)cc21 [Selumetinib] + C=CCn1c(=O)c2cnc(Nc3ccc(N4CCN(C)CC4)cc3)nc2n1-c1cccc(C(C)(C)O)n1 [AZD1775] (first compound max 10 µM, partner max 1 µM) | 0.434 | – | 0.979 | 0.662 | 0.848 | 0.987 | 0.699 | 0.956 | 0.514 | 0.271 | 0.547 | 0.924 | 0.974 | 0.779 | 0.558 | – | 0.512 | -0.0223 |
| Cn1cnc2c(F)c(Nc3ccc(Br)cc3Cl)c(C(=O)NOCCO)cc21 [Selumetinib] + CC(C)n1c(=O)n(C)c2cnc3cc(F)c(-c4ccc(OCCCN5CCCCC5)nc4)cc3c21 [AZD1390] (first compound max 10 µM, 7x7, partner max 0.3 µM) | 0.439 | – | 0.0431 | 0.211 | 0.618 | 0.948 | 0.0988 | 0.749 | 0.0866 | 0.235 | 0.262 | 0.017 | 0.172 | 0.405 | 0.451 | – | 0.0782 | -0.0464 |
| Cn1cnc2c(F)c(Nc3ccc(Br)cc3Cl)c(C(=O)NOCCO)cc21 [Selumetinib] + CCN(CCO)CCCOc1ccc2c(Nc3cc(CC(=O)Nc4cccc(F)c4)[nH]n3)ncnc2c1 [AZD2811] (first compound max 10 µM, 7x7, partner max 1 µM) | 0.495 | – | 0.937 | 0.387 | 0.665 | 0.999 | 0.64 | 0.841 | 0.366 | 0.382 | 0.249 | 0.116 | 0.734 | 0.676 | 0.485 | – | 0.177 | -0.0289 |
| Cn1cnc2c(F)c(Nc3ccc(Br)cc3Cl)c(C(=O)NOCCO)cc21 [Selumetinib] + C[C@@H]1COCCN1C2=NC(=NC(=C2)C3(CC3)[S@](=N)(=O)C)C4=C5C=CNC5=NC=C4 [AZD6738] (first compound max 10 µM, 7x7, partner max 10 µM) | 0.524 | – | 0.953 | 0.672 | 0.818 | 1 | 0.618 | 0.984 | 0.814 | 0.351 | 0.363 | 0.801 | 0.97 | 0.627 | 0.432 | – | 0.19 | -0.0375 |
